Test system: sugarcane
Test: Field trials in 1.5 year plant cane: phytotoxicity (% damage) to sugarcane
Assay type: in vivo
Conditions: 200 g/ha
Experimental: Five field trials are carried out in 1.5 year plant cane to examine the effect on sugarcane of combinations of compound of Formula I with various PS-II inhibiting herbicides. Plot sizes are 20 m^2 and results shown are the average of 3 replicate treatments.

COCCOCc1nc(C(F)(F)F)ccc1C(=O)C1=C(O)C2CCC(C2)C1=O (stereo not shown) [Formula I]
% Damage (Average of three trials).: 8%
